Among the data in publication PMC6128854 (Scientific Reports, 2018) are IC50 values, retold here.

Structures are written as SMILES. Positions of bridges follow the written chain, without caps; N, C: chain ends. Non-standard residues stand in square brackets, D forms with d. Residues, ends and D or L forms follow the SMILES beside them. Hyp = O=C(O)[C@@H]1C[C@@H](O)CN1

The target in this assay is hCav2.2 (Homo sapiens, UniProt Q00975). Nature of the assay: cell-based. The note with it: SEM.
hCav2.2, sequence (Q00975 whole entry, looked up): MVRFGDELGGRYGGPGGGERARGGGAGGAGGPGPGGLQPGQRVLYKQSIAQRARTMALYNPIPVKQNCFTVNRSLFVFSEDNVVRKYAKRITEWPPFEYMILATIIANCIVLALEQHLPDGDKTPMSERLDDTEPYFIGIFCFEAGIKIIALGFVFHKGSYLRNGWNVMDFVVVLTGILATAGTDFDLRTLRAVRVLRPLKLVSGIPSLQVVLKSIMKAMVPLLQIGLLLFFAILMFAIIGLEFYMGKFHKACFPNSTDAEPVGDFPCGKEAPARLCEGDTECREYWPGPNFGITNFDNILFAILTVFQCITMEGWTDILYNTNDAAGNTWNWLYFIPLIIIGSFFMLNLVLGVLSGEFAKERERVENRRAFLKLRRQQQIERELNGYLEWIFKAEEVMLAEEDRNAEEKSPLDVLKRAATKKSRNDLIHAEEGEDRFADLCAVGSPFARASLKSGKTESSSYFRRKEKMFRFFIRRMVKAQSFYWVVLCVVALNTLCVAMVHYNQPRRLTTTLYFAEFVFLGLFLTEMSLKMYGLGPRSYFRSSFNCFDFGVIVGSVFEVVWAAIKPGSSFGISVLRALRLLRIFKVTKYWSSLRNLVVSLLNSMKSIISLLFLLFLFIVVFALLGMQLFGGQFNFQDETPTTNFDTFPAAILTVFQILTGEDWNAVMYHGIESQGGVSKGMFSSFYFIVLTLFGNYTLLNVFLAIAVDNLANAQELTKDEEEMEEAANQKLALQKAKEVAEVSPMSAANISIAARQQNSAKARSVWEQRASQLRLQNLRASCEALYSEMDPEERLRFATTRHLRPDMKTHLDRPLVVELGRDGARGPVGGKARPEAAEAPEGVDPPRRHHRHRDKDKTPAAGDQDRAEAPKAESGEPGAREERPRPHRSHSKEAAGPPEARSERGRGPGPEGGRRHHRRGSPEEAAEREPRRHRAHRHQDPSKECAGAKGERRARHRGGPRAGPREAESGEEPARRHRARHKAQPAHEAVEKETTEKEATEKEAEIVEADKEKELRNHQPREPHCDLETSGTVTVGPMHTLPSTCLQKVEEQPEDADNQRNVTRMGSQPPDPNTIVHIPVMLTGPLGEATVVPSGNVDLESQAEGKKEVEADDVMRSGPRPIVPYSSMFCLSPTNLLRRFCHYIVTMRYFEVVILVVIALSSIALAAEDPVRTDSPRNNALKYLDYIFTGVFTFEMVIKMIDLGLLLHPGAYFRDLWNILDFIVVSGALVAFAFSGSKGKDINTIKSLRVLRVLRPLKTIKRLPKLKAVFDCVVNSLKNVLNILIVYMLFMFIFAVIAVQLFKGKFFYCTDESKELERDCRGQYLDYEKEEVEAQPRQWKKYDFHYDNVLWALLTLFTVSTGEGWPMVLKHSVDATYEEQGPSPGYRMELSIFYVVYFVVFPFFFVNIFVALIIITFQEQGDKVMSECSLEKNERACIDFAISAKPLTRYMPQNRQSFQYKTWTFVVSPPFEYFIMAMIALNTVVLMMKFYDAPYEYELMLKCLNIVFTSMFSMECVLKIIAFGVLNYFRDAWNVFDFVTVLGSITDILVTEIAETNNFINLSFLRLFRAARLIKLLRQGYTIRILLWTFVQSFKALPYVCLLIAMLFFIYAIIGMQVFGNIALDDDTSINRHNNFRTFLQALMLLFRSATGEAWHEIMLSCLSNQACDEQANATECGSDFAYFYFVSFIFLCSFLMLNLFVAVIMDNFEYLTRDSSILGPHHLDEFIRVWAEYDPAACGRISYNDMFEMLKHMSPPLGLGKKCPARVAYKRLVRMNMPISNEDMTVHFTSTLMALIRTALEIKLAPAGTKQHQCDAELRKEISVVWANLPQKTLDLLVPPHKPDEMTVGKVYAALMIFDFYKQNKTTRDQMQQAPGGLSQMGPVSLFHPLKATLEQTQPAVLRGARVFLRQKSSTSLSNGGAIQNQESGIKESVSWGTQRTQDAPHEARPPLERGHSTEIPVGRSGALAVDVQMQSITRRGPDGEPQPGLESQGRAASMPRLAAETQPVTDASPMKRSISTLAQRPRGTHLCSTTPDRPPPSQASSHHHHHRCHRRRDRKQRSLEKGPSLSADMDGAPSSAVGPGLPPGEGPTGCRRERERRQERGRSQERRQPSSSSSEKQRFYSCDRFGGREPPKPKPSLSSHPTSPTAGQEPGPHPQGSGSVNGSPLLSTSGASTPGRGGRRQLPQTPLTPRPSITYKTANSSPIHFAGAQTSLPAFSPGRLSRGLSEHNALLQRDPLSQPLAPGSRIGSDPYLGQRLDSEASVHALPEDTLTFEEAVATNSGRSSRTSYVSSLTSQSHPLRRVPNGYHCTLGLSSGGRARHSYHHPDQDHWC

Compound `CC[C@H](C)[C@@H]1NC(=O)[C@@H]2CSSC[C@@H]3NC(=O)[C@H](CCCCN)NC(=O)[C@H](CO)NC(=O)CNC(=O)[C@@H]4C[C@@H](O)CN4C(=O)[C@@H]4CCCN4C(=O)[C@H](CCCCN)NC(=O)[C@@H](N)CSSC[C@H](NC(=O)[C@H](CSSC[C@@H](C(=O)N[C@@H](CCCNC(=N)N)C(=O)N[C@@H](CCCCN)C(=O)N[C@@H](Cc4ccc(O)cc4)C(=O)N[C@@H](Cc4ccc(O)cc4)C(=O)O)NC(=O)[C@H](CCCNC(=N)N)NC(=O)[C@H](CCCCN)NC(=O)[C@H]([C@@H](C)O)NC(=O)[C@H](Cc4ccc(O)cc4)NC(=O)[C@H](CO)NC1=O)NC(=O)[C@H](CC(=O)O)NC(=O)[C@H](Cc1ccc(O)cc1)NC(=O)[C@H](CCSC)NC(=O)[C@H](CO)NC(=O)[C@@H]1C[C@@H](O)CN1C(=O)[C@H](CO)NC3=O)C(=O)N[C@@H]([C@@H](C)O)C(=O)N[C@@H]([C@@H](C)O)C(=O)N2` [MoVIB-[R13Y]] (H-CKP[Hyp]GSKCS[Hyp]SMYDCCTTCISYTKRCRKYY-OH; disulfide 1-16, 8-19, 15-26) came in with an IC50 of 3.47 ± 0.55 µM.
